Test results as given in ChEMBL document CHEMBL1142222, “A-803467, a potent and selective Nav1.8 sodium channel blocker, attenuates neuropathic and inflammatory pain in the rat” (Proc Natl Acad Sci U S A, 2007).
Calls of active or inactive are those of the source. No cut-off for these calls is given here.

Key:
[1] = system: Rattus norvegicus; test: Analgesic activity in rat complete Freund's adjuvant-induced thermal hyperalgesia model assessed as paw withdrawal latency at 100 mg/kg, ip after 2 days; type: functional; conditions: route intraperitoneal
[2] = target: Sigma non-opioid intracellular receptor 1 (Homo sapiens, UniProt Q99720); test: Displacement of [3H]pentazocine from sigma1 receptor
Sigma non-opioid intracellular receptor 1, sequence (Q99720 whole entry): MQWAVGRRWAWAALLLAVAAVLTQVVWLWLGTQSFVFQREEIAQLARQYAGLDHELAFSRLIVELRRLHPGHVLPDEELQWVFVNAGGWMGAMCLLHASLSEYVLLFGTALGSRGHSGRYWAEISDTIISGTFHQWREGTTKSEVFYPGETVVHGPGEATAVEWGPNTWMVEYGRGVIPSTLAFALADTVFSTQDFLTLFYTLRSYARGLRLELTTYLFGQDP

[3] = system: Rattus norvegicus; test: Analgesic activity in rat skin incision model of post-operative pain at 100 mg/kg, ip after 24 hrs; type: functional; conditions: route intraperitoneal
[4] = target: T1, Sodium channel protein type 10 subunit alpha (Homo sapiens, UniProt Q9Y5Y9); test: Inhibition of human Nav1.8 channel expressed in human HEK293 cells by patch clamp method; type: cell-based
T1 sequence (Q9Y5Y9 whole entry): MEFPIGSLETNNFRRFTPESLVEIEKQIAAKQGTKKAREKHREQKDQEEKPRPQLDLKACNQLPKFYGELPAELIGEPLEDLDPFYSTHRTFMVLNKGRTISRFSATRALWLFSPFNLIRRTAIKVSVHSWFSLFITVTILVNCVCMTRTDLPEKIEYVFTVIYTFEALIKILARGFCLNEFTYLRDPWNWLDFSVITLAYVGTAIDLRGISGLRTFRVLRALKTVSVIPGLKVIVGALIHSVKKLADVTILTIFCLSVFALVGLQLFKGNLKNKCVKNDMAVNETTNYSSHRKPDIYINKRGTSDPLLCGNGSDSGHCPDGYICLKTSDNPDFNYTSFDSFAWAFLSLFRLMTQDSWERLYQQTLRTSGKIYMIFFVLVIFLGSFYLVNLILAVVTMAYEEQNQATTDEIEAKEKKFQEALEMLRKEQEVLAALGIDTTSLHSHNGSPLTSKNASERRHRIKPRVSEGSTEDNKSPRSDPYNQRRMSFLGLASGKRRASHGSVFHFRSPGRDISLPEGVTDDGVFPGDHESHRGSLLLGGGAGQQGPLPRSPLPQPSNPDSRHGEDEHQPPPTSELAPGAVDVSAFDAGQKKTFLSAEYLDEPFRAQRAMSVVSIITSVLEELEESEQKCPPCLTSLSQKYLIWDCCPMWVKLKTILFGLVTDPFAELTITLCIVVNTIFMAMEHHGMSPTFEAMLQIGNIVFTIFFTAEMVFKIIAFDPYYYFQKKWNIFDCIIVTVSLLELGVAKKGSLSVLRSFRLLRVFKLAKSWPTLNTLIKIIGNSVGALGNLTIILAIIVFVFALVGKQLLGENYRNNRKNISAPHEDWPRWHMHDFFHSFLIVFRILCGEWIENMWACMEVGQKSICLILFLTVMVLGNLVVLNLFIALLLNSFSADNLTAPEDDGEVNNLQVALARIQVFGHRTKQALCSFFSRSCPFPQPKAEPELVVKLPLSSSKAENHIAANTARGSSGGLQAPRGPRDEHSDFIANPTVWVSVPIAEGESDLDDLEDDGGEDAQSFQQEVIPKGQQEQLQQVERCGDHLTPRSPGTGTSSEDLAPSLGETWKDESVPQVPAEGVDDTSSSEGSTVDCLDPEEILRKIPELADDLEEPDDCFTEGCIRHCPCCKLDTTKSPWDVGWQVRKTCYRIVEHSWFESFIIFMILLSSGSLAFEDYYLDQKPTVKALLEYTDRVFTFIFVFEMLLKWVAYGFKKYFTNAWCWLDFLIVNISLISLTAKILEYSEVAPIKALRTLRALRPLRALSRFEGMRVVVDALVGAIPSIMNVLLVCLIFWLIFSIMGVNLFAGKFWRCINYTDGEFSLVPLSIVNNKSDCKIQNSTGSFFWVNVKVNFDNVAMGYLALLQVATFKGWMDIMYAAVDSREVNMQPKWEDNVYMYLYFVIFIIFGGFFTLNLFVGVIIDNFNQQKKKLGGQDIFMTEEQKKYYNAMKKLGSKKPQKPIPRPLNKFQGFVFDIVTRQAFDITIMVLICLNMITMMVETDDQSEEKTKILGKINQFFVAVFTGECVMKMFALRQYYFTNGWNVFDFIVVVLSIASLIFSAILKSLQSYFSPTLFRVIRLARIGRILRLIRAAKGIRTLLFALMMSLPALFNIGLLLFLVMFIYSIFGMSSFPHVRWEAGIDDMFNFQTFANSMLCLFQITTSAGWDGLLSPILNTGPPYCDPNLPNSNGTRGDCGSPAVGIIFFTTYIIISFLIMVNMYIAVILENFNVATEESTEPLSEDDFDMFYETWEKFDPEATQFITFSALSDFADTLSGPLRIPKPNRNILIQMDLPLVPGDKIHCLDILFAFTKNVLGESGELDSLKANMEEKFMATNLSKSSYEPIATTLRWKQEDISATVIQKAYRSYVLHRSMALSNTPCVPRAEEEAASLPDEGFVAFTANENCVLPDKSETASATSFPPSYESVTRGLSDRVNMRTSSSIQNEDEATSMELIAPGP

[5] = target: 5-hydroxytryptamine receptor 5A (Homo sapiens, UniProt P47898); test: Displacement of [3H]LSD from 5HT5A receptor
[6] = system: Rattus norvegicus; test: Analgesic activity in ip dosed rat L5/L6 spinal nerve ligation-induced neuropathic pain model; type: functional
[7] = target: D(4) dopamine receptor (Homo sapiens, UniProt P21917); test: Displacement of [3H]spiperone from dopamine D4.4 receptor
[8] = target: 5-hydroxytryptamine receptor 1B (Homo sapiens, UniProt P28222); test: Displacement of [3H]CYP from 5HT1B receptor
[9] = target: Sodium channel protein type 2 subunit alpha (Homo sapiens, UniProt Q99250); test: Inhibition of human Nav1.2 channel expressed in HEK293 cells at -60 mV by patch clamp method; type: cell-based
[10] = target: Muscarinic acetylcholine receptor M5 (Homo sapiens, UniProt P08912); test: Displacement of [3H]4DAMP from muscarinic M5 receptor
[11] = system: Mus musculus; test: Analgesic activity in mouse visceral pain model assessed as acetic acid induced writhing at 100 mg/kg, ip; type: functional; conditions: route intraperitoneal
[12] = Cmax in rat at 10 mg/kg, ip; type: ADME, organism-based; set-up: dose 10 mg/kg, route intraperitoneal; conditions: in vivo
[13] = system: Rattus norvegicus; test: Analgesic activity in ip dosed rat vincristine-induced mechanical allodynic neuropathic pain; type: functional
[14] = target: T2, Sodium channel protein type 5 subunit alpha (Homo sapiens, UniProt Q14524); test: Inhibition of human Nav1.5 channel expressed in HEK293 cells at -90 mV by patch clamp method; type: cell-based
T2 sequence (Q14524 whole entry): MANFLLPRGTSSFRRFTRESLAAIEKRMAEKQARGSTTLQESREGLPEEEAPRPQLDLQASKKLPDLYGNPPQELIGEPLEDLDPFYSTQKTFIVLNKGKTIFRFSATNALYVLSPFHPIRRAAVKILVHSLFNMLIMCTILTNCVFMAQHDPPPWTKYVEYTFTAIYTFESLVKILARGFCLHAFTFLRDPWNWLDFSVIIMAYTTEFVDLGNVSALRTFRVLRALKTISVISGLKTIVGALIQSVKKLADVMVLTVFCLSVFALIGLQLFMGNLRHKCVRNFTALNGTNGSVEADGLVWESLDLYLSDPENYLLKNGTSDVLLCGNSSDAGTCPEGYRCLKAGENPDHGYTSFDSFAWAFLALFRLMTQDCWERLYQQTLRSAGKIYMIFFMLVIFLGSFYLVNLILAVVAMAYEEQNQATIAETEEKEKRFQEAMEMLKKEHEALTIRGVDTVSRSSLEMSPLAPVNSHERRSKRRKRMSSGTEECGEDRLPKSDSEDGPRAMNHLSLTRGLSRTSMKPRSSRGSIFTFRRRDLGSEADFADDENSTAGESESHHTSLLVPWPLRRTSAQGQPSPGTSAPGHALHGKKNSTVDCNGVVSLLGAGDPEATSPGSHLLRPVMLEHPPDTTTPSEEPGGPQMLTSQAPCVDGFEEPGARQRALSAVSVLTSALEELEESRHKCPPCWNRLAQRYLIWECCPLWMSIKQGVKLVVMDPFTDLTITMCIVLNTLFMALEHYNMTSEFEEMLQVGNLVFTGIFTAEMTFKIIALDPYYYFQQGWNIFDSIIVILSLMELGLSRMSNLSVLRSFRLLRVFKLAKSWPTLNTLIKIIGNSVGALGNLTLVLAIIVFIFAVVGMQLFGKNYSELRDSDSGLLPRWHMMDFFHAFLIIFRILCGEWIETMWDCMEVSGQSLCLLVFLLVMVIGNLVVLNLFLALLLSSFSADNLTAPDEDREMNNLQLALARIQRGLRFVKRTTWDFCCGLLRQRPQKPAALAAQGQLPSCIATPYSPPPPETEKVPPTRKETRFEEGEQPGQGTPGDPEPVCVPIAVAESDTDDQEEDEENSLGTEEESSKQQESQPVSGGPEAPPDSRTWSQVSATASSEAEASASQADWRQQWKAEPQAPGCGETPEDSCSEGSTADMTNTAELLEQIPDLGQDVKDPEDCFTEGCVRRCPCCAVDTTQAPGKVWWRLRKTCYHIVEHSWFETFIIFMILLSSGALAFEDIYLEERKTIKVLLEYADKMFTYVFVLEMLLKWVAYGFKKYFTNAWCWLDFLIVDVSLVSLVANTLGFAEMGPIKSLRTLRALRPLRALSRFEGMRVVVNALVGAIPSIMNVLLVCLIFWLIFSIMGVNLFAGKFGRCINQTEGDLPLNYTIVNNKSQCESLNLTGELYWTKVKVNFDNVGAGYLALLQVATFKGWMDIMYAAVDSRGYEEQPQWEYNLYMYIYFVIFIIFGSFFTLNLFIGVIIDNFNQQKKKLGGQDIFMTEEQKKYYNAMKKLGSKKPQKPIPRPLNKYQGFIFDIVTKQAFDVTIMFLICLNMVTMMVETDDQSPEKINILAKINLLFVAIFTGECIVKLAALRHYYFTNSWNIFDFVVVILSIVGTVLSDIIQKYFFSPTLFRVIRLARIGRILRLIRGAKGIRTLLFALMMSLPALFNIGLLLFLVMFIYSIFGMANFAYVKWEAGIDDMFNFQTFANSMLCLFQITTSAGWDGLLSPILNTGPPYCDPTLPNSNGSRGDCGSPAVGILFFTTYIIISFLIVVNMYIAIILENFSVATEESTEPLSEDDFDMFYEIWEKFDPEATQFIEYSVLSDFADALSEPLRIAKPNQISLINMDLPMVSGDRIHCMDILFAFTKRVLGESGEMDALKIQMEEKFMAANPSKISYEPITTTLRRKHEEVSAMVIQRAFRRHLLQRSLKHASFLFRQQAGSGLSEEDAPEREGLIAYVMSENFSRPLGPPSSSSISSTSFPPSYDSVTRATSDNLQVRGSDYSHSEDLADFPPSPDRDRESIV

[15] = system: Rattus norvegicus; test: Analgesic activity in rat chronic constriction injury model of cold allodynic neuropathic pain at 100 mg/kg, ip; type: functional; conditions: route intraperitoneal
[16] = target: Kappa-type opioid receptor (Homo sapiens, UniProt P41145); test: Displacement of [3H]U-69593 from opioid kappa receptor
[17] = target: Cannabinoid receptor 2 (Homo sapiens, UniProt P34972); test: Displacement of [3H]Win 55212-2 from cannabinoid CB2 receptor
[18] = system: DRG neuron; test: Suppression of spontaneous firing of rat DRG neurons at 0.3 uM; type: functional, cell-based
[19] = Displacement of [3H]PACAP1-27 from PACAP PAC1 receptor
[20] = system: Rattus norvegicus; test: Analgesic activity in ip dosed rat complete Freund's adjuvant-induced thermal hyperalgesia model assessed as paw withdrawal latency after 2 days; type: functional; conditions: 48 h
[21] = system: Rattus norvegicus; test: Antinociceptive activity in rat assessed as reduction of spontaneous firing of spinal dorsal horn wide dynamic range neurons at 20 mg/kg, iv; type: functional, Dorsal horn of spinal cord; set-up: scale not given: the % may be the effect or the level left
[22] = target: T1, Sodium channel protein type 10 subunit alpha; test: Inhibition of human Nav1.8 channel expressed in HEK293 cells at -100 mV by patch clamp method; type: cell-based
[23] = target: 5-hydroxytryptamine receptor 2C (Homo sapiens, UniProt P28335); test: Displacement of [3H]mesulergine from 5HT2C receptor
[24] = target: D(2) dopamine receptor (Homo sapiens, UniProt P14416); test: Displacement of [3H]spiperone from dopamine D2 receptor
D(2) dopamine receptor, sequence (P14416 whole entry): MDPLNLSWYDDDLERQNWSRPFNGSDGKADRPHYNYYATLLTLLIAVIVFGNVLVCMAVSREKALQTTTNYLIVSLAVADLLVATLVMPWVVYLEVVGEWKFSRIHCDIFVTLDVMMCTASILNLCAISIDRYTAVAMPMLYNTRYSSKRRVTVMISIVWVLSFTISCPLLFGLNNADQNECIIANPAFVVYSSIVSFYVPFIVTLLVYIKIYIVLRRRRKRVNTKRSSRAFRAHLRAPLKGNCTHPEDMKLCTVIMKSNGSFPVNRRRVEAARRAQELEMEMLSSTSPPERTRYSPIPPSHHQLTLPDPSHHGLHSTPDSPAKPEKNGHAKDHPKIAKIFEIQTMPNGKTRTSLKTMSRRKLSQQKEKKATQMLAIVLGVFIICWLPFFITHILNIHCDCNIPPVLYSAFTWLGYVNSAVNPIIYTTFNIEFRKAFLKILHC

[25] = system: DRG neuron; test: Suppression of evoked action potential firing in rat DRG neurons at 0.1 uM; type: functional
[26] = system: Rattus norvegicus; test: Motor effect in rat assessed as latency to fall at 300 mg/kg, ip by edge balance test; type: functional; conditions: route intraperitoneal
[27] = target: P2X purinoceptor 3 (Homo sapiens, UniProt P56373); test: Inhibition of P2X3 receptor
[28] = target: Muscarinic acetylcholine receptor M3 (Homo sapiens, UniProt P20309); test: Displacement of [3H]4DAMP from muscarinic M3 receptor
[29] = target: Nociceptin receptor (Homo sapiens, UniProt P41146); test: Displacement of [3H]nociceptin from ORL1 receptor
[30] = system: Rattus norvegicus; test: Analgesic activity in ip dosed rat skin incision model of post-operative pain after 24 hrs; type: functional
[31] = species on record: Rattus norvegicus; test: Analgesic activity in rat spinal nerve ligation model at 200 to 300 nM; type: functional
[32] = Protein binding in rat plasma; type: ADME, cell-free; conditions: read-out: PPB (converted)
[33] = system: Rattus norvegicus; test: Analgesic activity in rat complete Freund's adjuvant-induced mechanical hyperalgesia model assessed as paw withdrawal latency at 100 mg/kg, ip after 2 days; type: functional; conditions: route intraperitoneal
[34] = target: Potassium voltage-gated channel subfamily KQT member 2 (Homo sapiens, UniProt O43526); test: Inhibition of KCNQ2 channel
[35] = target: P2X purinoceptor 2 (Homo sapiens, UniProt Q9UBL9); test: Displacement of [3H]alpha,beta-methyl ATP from P2X receptor
[36] = Tmax in rat at 10 mg/kg, po; type: ADME, organism-based; set-up: dose 10 mg/kg, route oral; conditions: in vivo
[37] = target: T2, Sodium channel protein type 5 subunit alpha; test: Inhibition of human Nav1.5 channel expressed in HEK293 cells at -150 mV by patch clamp method; type: cell-based
[38] = target: Endothelin-1 receptor (Homo sapiens, UniProt P25101); test: Displacement of [125I]endothelin-1 from endothelin ETA receptor
[39] = system: Rattus norvegicus; test: Analgesic activity in ip dosed rat acute thermal stimulation nociception model assessed as paw withdrawal latency; type: functional
[40] = system: DRG neuron; test: Suppression of evoked action potential firing in rat DRG neurons at 0.3 uM; type: functional, cell-based
[41] = system: Rattus norvegicus; test: Analgesic activity in rat acute mechanical stimulation nociception model assessed as paw withdrawal latency at 100 mg/kg, ip; type: functional; conditions: route intraperitoneal
[42] = target: T1, Sodium channel protein type 10 subunit alpha; test: Inhibition of human Nav1.8 channel expressed in HEK293 cells at -40 mV by patch clamp method; type: cell-based
[43] = system: Rattus norvegicus; test: Motor effect in ip dosed rat assessed as latency to fall by edge balance test; type: functional
[44] = system: Rattus norvegicus; test: Analgesic activity in ip dosed rat acute mechanical stimulation nociception model assessed as paw withdrawal latency; type: functional
[45] = system: Rattus norvegicus; test: Analgesic activity in rat complete Freund's adjuvant-induced mechanical hyperalgesia model assessed as paw withdrawal latency at 100 mg/kg, ip after 4 days; type: functional; conditions: route intraperitoneal
[46] = species on record: Rattus norvegicus; test: Motor effect in rat assessed as locomotory activity; type: functional
[47] = system: Rattus norvegicus; test: Analgesic activity in ip dosed rat skin incision model of post-operative pain after 2 hrs; type: functional
[48] = system: Rattus norvegicus; test: Analgesic activity in ip dosed rat capsaicn induced mechanical allodynia model; type: functional
[49] = system: Rattus norvegicus; test: Analgesic activity in ip dosed rat complete Freund's adjuvant-induced mechanical hyperalgesia model assessed as paw withdrawal latency after 2 days; type: functional; conditions: 48 h
[50] = target: C-X-C chemokine receptor type 2 (Homo sapiens, UniProt P25025); test: Displacement of [125I]IL8 from CXCR2 receptor
C-X-C chemokine receptor type 2, sequence (P25025 whole entry): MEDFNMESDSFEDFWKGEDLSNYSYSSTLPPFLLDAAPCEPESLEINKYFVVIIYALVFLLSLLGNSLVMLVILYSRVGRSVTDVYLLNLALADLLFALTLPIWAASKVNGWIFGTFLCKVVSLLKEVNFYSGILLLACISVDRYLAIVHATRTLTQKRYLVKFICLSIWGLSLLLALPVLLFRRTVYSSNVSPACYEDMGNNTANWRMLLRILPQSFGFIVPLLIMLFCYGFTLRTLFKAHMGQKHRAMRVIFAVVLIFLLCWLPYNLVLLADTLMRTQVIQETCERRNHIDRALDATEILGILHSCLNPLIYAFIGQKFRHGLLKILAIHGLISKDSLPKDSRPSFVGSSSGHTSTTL

[51] = system: Rattus norvegicus; test: Analgesic activity in ip dosed rat carrageenan-induced […] pain model; type: functional
[52] = Volume of distribution in rat; type: ADME, organism-based; conditions: in vivo, read-out: Vbeta
[53] = Displacement of [3H]GABA from GABA receptor

IC50 [2]: > 10 µM | IC50 [4]: 0.008 µM | IC50 [5]: > 10 µM | IC50 [7]: > 10 µM | IC50 [8]: > 10 µM | IC50 [9]: 7.38 µM | IC50 [10]: > 10 µM | Cmax [12]: 350 ng/mL | IC50 [16]: > 10 µM | IC50 [17]: > 10 µM | IC50 [19]: > 10 µM | IC50 [22]: 0.079 µM | IC50 [23]: > 10 µM | IC50 [24]: > 10 µM | IC50 [27]: > 10 µM | IC50 [28]: > 10 µM | IC50 [29]: > 10 µM | fraction unbound [32]: 0.013 | IC50 [34]: > 10 µM | IC50 [35]: > 10 µM | Tmax [36]: 1.5 h | IC50 [38]: > 10 µM | IC50 [42]: 0.008 µM | IC50 [50]: > 10 µM | Vd [52]: 11.5 L/kg | IC50 [53]: > 10 µM
Structure (SMILES): COc1cc(NC(=O)c2ccc(-c3ccc(Cl)cc3)o2)cc(OC)c1
Activity [1]: 64% | Activity [3]: 32% | ED50 [6]: 47 mg/kg | Activity [11]: 34% | ED50 [13]: > 100 mg/kg | IC50 [14]: 7.34 µM | Activity [15]: 61% | Activity [18]: Active | ED50 [20]: 100 mg/kg | Activity [21]: 66% | Activity [25]: inactive | Activity [26]: 0% | ED50 [30]: > 100 mg/kg | Activity [31]: >70% | Activity [33]: 34% | IC50 [37]: 32.8 µM | ED50 [39]: > 100 mg/kg | Activity [40]: Active | Activity [41]: 70% | ED50 [43]: > 300 mg/kg | ED50 [44]: 65 mg/kg | Activity [45]: 42% | ED50 [46]: > 300 mg/kg | ED50 [47]: > 100 mg/kg | ED50 [48]: 100 mg/kg | ED50 [49]: > 100 mg/kg | ED50 [51]: 100 mg/kg
